Experimental data: patent publication US20240148821A1, “PHARMACEUTICAL USE OF CYCLIC PEPTIDE COMPOUND” (CHUGAI SEIYAKU KABUSHIKI KAISHA, priority 2021, published 2024)
Numbered stars: 1 amine (or outer) side, 2 acyl side, 3 side chain; on linkers, the order of the positions; unused ones are H or OH. Bridge positions count the residues as written; N and C are the ends. Square brackets hold non-standard residues; d marks the D form. Peptide text beside a SMILES is read from it. * marks the point of attachment. hPhe(3,5-F2-4-CF3) = N[C@@H](CCc1cc(F)c(C(F)(F)F)c(F)c1)C(=O)O; hPhe(3-Cl-4-CF3) = N[C@@H](CCc1ccc(C(F)(F)F)c(Cl)c1)C(=O)O; X49 = CN([C@@H](Cc1cccc(OC(F)(F)F)c1)C(=O)[*:2])[*:1]; hPhe(4-CF3) = N[C@@H](CCc1ccc(C(F)(F)F)cc1)C(=O)O; NMeAbu(4,4,4-F3) = CN[C@@H](CC(F)(F)F)C(=O)O; NMePhe(4-Cl) = CN[C@@H](Cc1ccc(Cl)cc1)C(=O)O; NMePhe(2-CN) = CN[C@@H](Cc1ccccc1C#N)C(=O)O; NMePhe(2-Me) = CN[C@@H](Cc1ccccc1C)C(=O)O; Phe(3-I) = N[C@@H](Cc1cccc(I)c1)C(=O)O; Pro(4,4-F2) = O=C(O)[C@@H]1CC(F)(F)CN1; NMeCha = CN[C@@H](CC1CCCCC1)C(=O)O; NMeCba = CN[C@@H](CC1CCC1)C(=O)O; NMeChg = CN[C@H](C(=O)O)C1CCCCC1; NMeF = CN[C@@H](Cc1ccccc1)C(=O)O; NMeD = CN[C@@H](CC(=O)O)C(=O)O; NMeL = CN[C@@H](CC(C)C)C(=O)O; NMeNle = CCCC[C@H](NC)C(=O)O; NMeV = CN[C@H](C(=O)O)C(C)C; d(β3hA) = C[C@@H](N)CC(=O)O; NMeS = CN[C@@H](CO)C(=O)O; NMeA = CN[C@@H](C)C(=O)O; Nle = CCCC[C@H](N)C(=O)O; Piperidide = C1CCN(*)CC1; Pyrrolidide = C1CCN(*)C1; Ac5c = NC1(C(=O)O)CCCC1; Aze = O=C(O)[C@@H]1CCN1; CH2CMe2OH = CC(C)(O)C*; Aib = CC(C)(N)C(=O)O; Isopentyl = CC(C)CC*; Sar = CNCC(=O)O

system: Human pancreatic cancer cell line AsPC-1 (G12D mutation Kras); assay: AsPC-1 cell growth inhibition (AsPC-1 CGI); format: cell-based; conditions: read-out: AsPC-1 cell growth inhibition, 50% growth inhibitory concentration (IC50 value); 96 hours, CellTiter-Glo, values classified in ranges
Description: Test compounds were serially dilated with dimethyl sulfoxide, and 200 nL was then dispensed to a U-bottom 96-well plate using Labcyte Echo. […] The cell suspension was dispensed to a. plate containing a test compound at 100 μL per well and incubated at 37° C. in a 5% carbon dioxide gas incubator. 96 hours later, 80 μL of CellTiter-Glo (Promega) was added to each well and fluorescence was measured.

Row | SMILES | IC50 [nM]
1 | CCCC[C@@H]1NC(=O)[C@H](Cc2cccc(I)c2)NC(=O)CN(C)C(=O)[C@H](Cc2ccc(Cl)cc2)N(C)C(=O)CN(C)C(=O)CN(C)C(=O)[C@H]([C@@H](C)CC)NC(=O)[C@H](CC(C)C)N(C)C(=O)C[C@@H](C(=O)N2CCCCC2)N(C)C(=O)[C@H](CC(C)C)NC(=O)[C@H](Cc2cccc(OC(F)(F)F)c2)N(C)C1=O [Compound 143] ([NMeL]I[Sar][Sar][NMePhe(4-Cl)][Sar][Phe(3-I)][Nle][X49]L[NMeD]-Piperidide; lactam N-11) | > 500
2 | CCCC[C@@H]1NC(=O)[C@H](Cc2cccc(I)c2)NC(=O)CN(C)C(=O)[C@H](Cc2ccc(Cl)cc2)N(C)C(=O)CN(C)C(=O)CN(C)C(=O)[C@H]([C@@H](C)CC)NC(=O)[C@H](CC(C)C)N(C)C(=O)C[C@@H](C(=O)N2CCCCC2)N(C)C(=O)[C@H](CC(C)C)NC(=O)[C@H](Cc2ccccc2C)N(C)C1=O [Compound 696] ([NMeL]I[Sar][Sar][NMePhe(4-Cl)][Sar][Phe(3-I)][Nle][NMePhe(2-Me)]L[NMeD]-Piperidide; lactam N-11) | > 500
3 | CC[C@H](C)[C@@H]1NC(=O)[C@H](CC(F)(F)F)N(C)C(=O)C[C@@H](C(=O)N2CCCC2)N(C)C(=O)[C@H](C2CCCCC2)N(C)C(=O)C2(CCCC2)NC(=O)[C@@H]2CC(F)(F)CN2C(=O)[C@H](CCc2cc(F)c(C(F)(F)F)c(F)c2)NC(=O)CN(C)C(=O)[C@H](CC2CCCCC2)N(C)C(=O)CN(C)C(=O)CN(C)C1=O [Compound 1281] ([NMeAbu(4,4,4-F3)]I[Sar][Sar][NMeCha][Sar][hPhe(3,5-F2-4-CF3)][Pro(4,4-F2)][Ac5c][NMeChg][NMeD]-Pyrrolidide; lactam N-11) | ≤ 20
4 | CC[C@H](C)[C@@H]1NC(=O)[C@H](C)N(C)C(=O)C[C@@H](C)NC(=O)[C@H](C(C)C)N(C)C(=O)[C@H](Cc2ccccc2)N(C)C(=O)[C@H](CC(C)C)N(C)C(=O)[C@H](CCc2ccc(C(F)(F)F)cc2)NC(=O)CN(C)C(=O)[C@H](Cc2ccc(Cl)cc2)N(C)C(=O)[C@@H]2CCN2C(=O)CN(C)C1=O [Compound 913] (cyclo([Aze][NMePhe(4-Cl)][Sar][hPhe(4-CF3)][NMeL][NMeF][NMeV][d(β3hA)][NMeA]I[Sar])) | > 500
5 | CC[C@H](C)[C@@H]1NC(=O)[C@H](CC(C)C)N(C)C(=O)C[C@@H](C)NC(=O)[C@H](C(C)C)N(C)C(=O)C2(CCCC2)NC(=O)[C@@H]2CCCN2C(=O)[C@H](CCc2ccc(C(F)(F)F)c(Cl)c2)NC(=O)CN(C)C(=O)[C@H](Cc2ccccc2C#N)N(C)C(=O)CN(C)C(=O)CN(C)C1=O [Compound 767] (cyclo([Ac5c][NMeV][d(β3hA)][NMeL]I[Sar][Sar][NMePhe(2-CN)][Sar][hPhe(3-Cl-4-CF3)]P)) | > 500
6 | CC[C@H](C)[C@@H]1NC(=O)[C@H](C)N(C)C(=O)C[C@@H](C(=O)N2CCCCC2)N(C)C(=O)[C@H](C(C)C)N(C)C(=O)C2(CCCC2)NC(=O)[C@@H]2CCCN2C(=O)[C@H](CCc2ccc(C(F)(F)F)c(Cl)c2)NC(=O)CN(C)C(=O)[C@H](CC2CCCCC2)N(C)C(=O)[C@@H]2CCN2C(=O)[C@H](CC2CCCCC2)N(C)C1=O [Compound 1580] ([NMeA]I[NMeCha][Aze][NMeCha][Sar][hPhe(3-Cl-4-CF3)]P[Ac5c][NMeV][NMeD]-Piperidide; lactam N-11) | > 500
7 | CCCC[C@H]1C(=O)N(C)[C@H](C(=O)N2CCCCC2)CC(=O)N(C)[C@@H](CC(C)C)C(=O)N[C@@H]([C@@H](C)CC)C(=O)N(C)CC(=O)N(C)CC(=O)N(C)[C@@H](CC2CCCCC2)C(=O)N(C)CC(=O)N[C@@H](CCc2ccc(C(F)(F)F)c(Cl)c2)C(=O)N2CCC[C@H]2C(=O)NC2(CCCC2)C(=O)N1C [Compound 1815] ([NMeL]I[Sar][Sar][NMeCha][Sar][hPhe(3-Cl-4-CF3)]P[Ac5c][NMeNle][NMeD]-Piperidide; lactam N-11) | > 500
8 | CC[C@H](C)[C@@H]1NC(=O)[C@H](CC(C)C)N(C)C(=O)C[C@@H](C)NC(=O)[C@H](CC2CCC2)N(C)C(=O)C2(CCCC2)NC(=O)[C@@H]2CCCN2C(=O)[C@H](CCc2ccc(C(F)(F)F)c(Cl)c2)NC(=O)CN(C)C(=O)[C@H](CC2CCCCC2)N(C)C(=O)CN(C)C(=O)CN(C)C1=O [Compound 59] (cyclo([Ac5c][NMeCba][d(β3hA)][NMeL]I[Sar][Sar][NMeCha][Sar][hPhe(3-Cl-4-CF3)]P)) | > 500
9 | CC[C@H](C)[C@@H]1NC(=O)[C@H](CC(C)C)N(C)C(=O)C[C@@H](C(=O)N2CCCCC2)N(C)C(=O)[C@H](CC(C)C)N(C)C(=O)C(C)(C)NC(=O)[C@H](COCC(C)(C)O)N(C)C(=O)[C@H](CCc2ccc(C(F)(F)F)c(Cl)c2)NC(=O)CN(C)C(=O)[C@H](COCCC(C)C)N(C)C(=O)CN(C)C(=O)CN(C)C1=O [Compound 1541] ([NMeL]I[Sar][Sar][NMeS](Isopentyl)[Sar][hPhe(3-Cl-4-CF3)][NMeS](CH2CMe2OH)[Aib][NMeL][NMeD]-Piperidide; lactam N-11) | > 500
